Data from patent publication US8193377B2, “(−)-epigallocatechin gallate derivatives for inhibiting proteasome” (The Hong Kong Polytechnic University, priority 2004, dated 2012).
Like-named read-outs stand apart in the source and are kept apart here. Values belong to the compound of their own block, whether it stands above or below them.

What was measured:
[1] = molecular target: 20S prokaryotic proteasome (UniProt Q9P992); conditions: Table 2, Reference a (Smith et al. 2004), cited from earlier work
[2] = molecular target: T1, purified rabbit 20s proteasome (Oryctolagus cuniculus, UniProt G1T4Q9); test: Inhibition of chymotrypsin-like activity of purified 20S proteasome; assay type: biochemical
T1 construct: purchased Boston Biochem (Cambridge, Mass.)
T1 sequence (G1T4Q9 1-263): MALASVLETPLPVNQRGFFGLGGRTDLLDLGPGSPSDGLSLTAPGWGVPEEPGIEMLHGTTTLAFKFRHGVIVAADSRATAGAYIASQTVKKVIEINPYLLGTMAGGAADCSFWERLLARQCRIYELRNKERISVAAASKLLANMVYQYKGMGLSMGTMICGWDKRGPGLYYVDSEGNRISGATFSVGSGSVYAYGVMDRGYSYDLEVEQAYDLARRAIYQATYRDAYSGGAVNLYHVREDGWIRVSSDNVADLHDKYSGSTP
Protocol: Measurement of the chyrnotrypsin-like activity of the 20s proteasome was performed by incubating 0.5 μg of purified rabbit 20s proteasome with 40 μM fluorogenic peptide substrate, Suc-Leu-Leu-Val-Tyr-AMC, with or without various concentrations of natural and synthetic tea polyphenols as described previously (Nam S et. al.).
In order to test this hypothesis, proteasome activity was tested both in vitro and in intact Jurkat T cells with either 1 or (−)-EGCG (as a positive control). First, 1 and commercial (−)-EGCG were dissolved in DMSO and their effects on the chymotrypsin-like activity of purified 20S proteasomes were measured. […] In contrast, (−)-EGCG at 10 μM inhibited 80-90% of the proteasomal chymotrypsin-like activity. Therefore, as predicted, 1 outside of a cellular system is not a proteasome inhibitor.
Up to 25 μM of all protected and unprotected compounds were incubated with a purified 20s proteasome and a fluorogenic substrate for chyrnotrypsin activity for 30 min. The half-maximal inhibitory concentration or IC50 was then determined. […] This is consistent with the results above.

[3] = molecular target: T2, proteasomal chymotrypsin-like activity in Jurkat T cells (Homo sapiens, UniProt P28074); test: Proteasomal chymotrypsin-like activity in intact Jurkat T cells / their lysates; assay type: cell-based; conditions: 25 μM, 4 and 24 h
T2 construct: measurement of the proteasomal chymotrypsin-like activity in the prepared lysates; endogenous in cells; host or cells: Jurkat T cells (human leukemia)
T2 sequence (P28074 60-263): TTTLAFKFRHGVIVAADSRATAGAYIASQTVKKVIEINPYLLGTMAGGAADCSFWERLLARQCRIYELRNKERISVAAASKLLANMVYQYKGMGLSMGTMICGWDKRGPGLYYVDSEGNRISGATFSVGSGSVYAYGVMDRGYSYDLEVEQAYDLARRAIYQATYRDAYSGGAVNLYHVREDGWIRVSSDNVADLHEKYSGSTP
Protocol: VA-13 or WI-38 cells were grown in 24 well plates (2 ml/well) to 70-80% confluency, followed by 24 h treatment with […] (−)-EGCG, 2, or 2a. […] Suc-Leu-Leu-Val-Tyr-AMC substrate was then added for 2.5 h at 37° C. and the chyrnotrypsin-like activity was measured as described above. Alternatively, cells were treated with each compound at 25 μM for 4 or 24 h, and harvested and lysed. Suc-Leu-Leu-Val-Tyr-AMC (40 μM) was then incubated with the prepared cell lysates for 2.5 h and the chymotrypsin-like activity was measured as described above.
If 1 converts to (−)-EGCG inside the cells, proteasome inhibition in vivo should be detected. To examine this possibility, human Jurkat cells was treated with 25 μM of 1 or (−)-EGCG for 12 or 24 h, followed by measurement of proteasome activity by using a chymotrypsin-like specific fluorogenic substrate in intact cells (FIG. 6a) or Western blot for ubiquinated proteins (FIG. 6b). […] To analyze the intracellular level of polyubiquitinated proteins, cells were lysed after 12 hours incubation and subjected to Western blotting. […] It is possible that the amount of EGCG generated from 1, and thus its biological activity inside the cells depends on a combination of factors: the relative permeability of 1 into the cells, the amount of esterase enzymes and the amount of anti-oxidants that may be present in the cells at any time.
To determine whether the unprotected and protected polyphenol analogs could inhibit the proteasomal activity in intact cells, leukemia Jurkat T cells were treated with each compound at 25 μM for 4 and 24 h, followed by collection of cell pellets and measurement of the proteasomal chymotrypsin-like activity in the prepared lysates.

VA-13 cells = test: Immunostaining of apoptotic cells with anti-cleaved PARP-FITC; assay type: cell-based, human; conditions: 25 μM, 24 h
Protocol: Immunostaining of apoptotic cells was performed by addition of a FITC-conjugated polyclonal antibody that recognizes cleaved poly(ADP-ribose) polymerase (PARP) and visualized on an Axiovert 2 5 (Zeiss; Thornwood, N.Y.) microscope. Cells were grown to about 80% confluency in 60 mm dishes. VA-13 cells were then treated with VP-16, 2, or 2a (25 μM) for 24 h. Following treatment, both suspension and adhering cells were collected and washed twice in PBS pH 7.4. The cells were washed between all steps listed below and all washes are 1 min duration with PBS. Cells were then fixed in ice-cold 70% ethanol, permeabilized in 0.1% Triton-X-100 and blocked for 30 min in 1% bovine serum albumin (BSA) at room temperature. Incubation with the primary FITC-conjugated-p85/PARP antibody was for 30 min at 4° C. in the dark with mild shaking. Cell suspension was then transferred to glass slides in the presence of Vector Shield mounting medium with DAPI. Images were captured using AxioVision 4.1 and adjusted using Adobe Photoshop 6.0 software. Cell death was quantified by counting the number of apoptotic cells over the total number of cells in the same field. Data are mean of duplicate experiments ±SD.
It has been shown that proteasome inhibition can induce apoptosis in a wide variety of cancer cells, but not in normal, non-transformed cells (An B et al). Jurkat T cells are treated with 25 μM of each of the selected polyphenols and their protected analogs for 24 h to investigate their abilities to induce apoptotic cell death. […] The unprotected 2 induced much less apoptosis (21%), while 25 μM VP-16, used as a positive control, induced 92% apoptosis (FIGS. 10C and 10D). Counterstain with DAPI, which binds to the minor groove in A-T rich regions of DNA, was decreased drastically in apoptotic cells (FIG. 10C), consistent with DNA fragmentation in late stage apoptosis.

[4] = molecular target: 20S prokaryotic proteasome (UniProt Q9P992); test: Table 2: effects of tea polyphenols on 20S prokaryotic proteasome activities; assay type: biochemical; conditions: Table 2, This work
Protocol: To further examine the effects of B-ring —OH group deletion on proteasome-inhibitory and cell death-inducing abilities, we synthesized several novel EGCG analogs with eliminated —OH groups on the B-ring as well as their putative prodrugs, the peracetate-protected counterparts. By using a purified 20S proteasome and a chymotrypsin-like fluorogenic substrate, the proteasome-inhibitory effects of the following unprotected polyphenol analogs are determined: […]

[5] = test system: ubiquitinated proteins, Bax, p27, IκBα in Jurkat T cells; test: Western blot for ubiquitinated proteins and proteasome targets (Bax, p27, IκBα) in Jurkat T cells; assay type: cell-based, human; conditions: 25 μM, up to 8 h
Protocol: Whole cells extracts were prepared as described previously (An B, Goldfarb R H, Siman R, Dou Q P. Novel dipeptidyl proteasome inhibitors overcome Bc1-2 protective function and selectively accumulate the cyclin-dependent kinase inhibitor p27 and induce apoptosis in transformed, but not normal, human fibroblasts. Cell Death Differ 1998; 5: 1062-75.). Analysis of Bax, IKBa, p27, PAW, and ubiquitinated protein expression were performed using monoclonal or polyclonal antibodies according to previously reported protocols (An B et. al.).
To determine what effects the synthetic tea analogs had on the proteasome in vivo, Jurkat cells were treated with 25 μM of each synthetic compound for either 4 or 24 h, with (−)-EGCG as a control (FIGS. 9A and 9B). […] This is consistent with the idea that protected analogs are potent inhibitors of the proteasome at an earlier time point and that after 24 h of treatment the ubiquitinated proteins are being depleted by deubiquitinating enzymes. […] The putative ubiquitinated IκBα band is still found in cells treated with 2a, 3a, and 4a (FIG. 9B, Lanes 9, 5, 7). The presumed ubiquinated IκBα band is now absent in the 24 h treatment, possibly due to deubiquitination (FIG. 9B). Actin was used as a loading control in this experiment.
The pro-apoptotic protein Bax and the cyclin-dependent kinase inhibitor p27 are natural proteasome targets. If the peracetate-protected polyphenols inhibit the intact proteasome activity, we would expect accumulation of Bax and p27 in these cells. To test this idea, Jurkat T cells were treated with both protected and unprotected compounds and lysates were analyzed by Western blot using specific antibodies to Bax and p27 (FIG. 15). After 4 h of treatment, the peracetate-protected analogs 24* and 19*, but not their unprotected analogs, were able to increase accumulation of both Bax (by 3- and 2.5-fold, respectively) and p27 (6- and 11-fold, respectively) (FIG. 15A). After 24 h treatment, Bax levels were increased in cells treated with all of the peracetate-protected compounds (13-, 12-, 40- and 36-fold, respectively, by 24*, 19*, 21* and 23*).

[6] = Suc-Leu-Leu-Val-Tyr-AMC, 2 h incubation, Table 1, read-out: IC50 (μM), unprotected
[7] = up to 25 μM, 30 min incubation, read-out: IC50

20S prokaryotic proteasome, sequence (Q9P992 whole entry): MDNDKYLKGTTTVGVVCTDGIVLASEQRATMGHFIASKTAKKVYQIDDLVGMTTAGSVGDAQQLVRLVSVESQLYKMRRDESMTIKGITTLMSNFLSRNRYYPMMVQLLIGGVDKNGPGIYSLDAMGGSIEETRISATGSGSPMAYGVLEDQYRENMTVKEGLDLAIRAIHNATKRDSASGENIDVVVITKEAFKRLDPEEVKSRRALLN

SMILES: O=C(O[C@H]1Cc2c(O)cc(O)cc2O[C@@H]1c1ccc(O)c(O)c1)c1cc(O)c(O)c(O)c1 [(+)-CG, (+)-(2R,3S)-5,7-dihydroxy-2-(3,4-dihydroxyphenyl)chroman-3-yl 3,4,5-trihydroxybenzoate]
- IC50 [1]: 0.73 µM

- IC50 [2, 6]: 8.51 µM
- proteasome inhibition in intact Jurkat T cells [3]: moderate potency
SMILES: O=C(O[C@@H]1Cc2c(O)cc(O)cc2O[C@@H]1c1ccc(O)cc1)c1ccc(O)cc1 [Compound 10, (−)-(2R,3R)-5,7-dihydroxy-2-(4-hydroxyphenyl)chroman-3-yl 4-hydroxybenzoate]

SMILES: COc1cc([C@@H]2c3cc4c(cc3[C@@H](O[C@@H]3O[C@@H]5CO[C@@H](C)O[C@H]5[C@H](O)[C@H]3O)[C@H]3COC(=O)[C@H]23)OCO4)cc(OC)c1O [VP-16, reference compound]
- apoptotic cells (p85 cleaved PARP) (VA-13 cells): 92%

SMILES: O=C(OC1Cc2c(O)cc(O)cc2OC1c1ccc(O)cc1)c1cc(O)c(O)c(O)c1 (centres unmarked) [#m]
- IC50 [4]: 4.56 µM

- IC50 [2, 6]: 5.99 µM
SMILES: O=C(O[C@@H]1Cc2c(O)cc(O)cc2O[C@@H]1c1ccc(O)c(O)c1)c1ccc(O)cc1 [Compound 12, (−)-(2R,3R)-5,7-dihydroxy-2-(3,4-dihydroxyphenyl)chroman-3-yl 4-hydroxybenzoate]

- IC50 [2, 6]: 0.59 µM
SMILES: O=C(OC1Cc2c(O)cc(O)c(Cc3ccccc3)c2OC1c1ccc(O)c(O)c1)c1cc(O)c(O)c(O)c1 (centres unmarked) [Compound 16]

- IC50 [2, 7]: 14 to 15 µM
SMILES: O=C(O[C@@H]1Cc2c(O)cc(O)cc2O[C@H]1c1cc(O)c(O)c(O)c1)c1cc(O)cc(O)c1 (relative stereo) [Compound 4, (2S*,3R*)-trans-5,7-Bis(hydroxy)-2-[3,4,5-tris(hydroxy)phenyl]chroman-3-yl 3,5-bis(hydroxy)benzoate]
- time course of ubiquitinated protein accumulation [5]: highest expression after 8 hours

SMILES: O=C(OC1Cc2c(O)cc(O)cc2OC1c1ccc(O)c(O)c1)c1cc(O)c(O)c(O)c1 (single isomer, unassigned; (-)) [(−)-CG]
- IC50 [1]: 0.75 µM

SMILES: O=C(O[C@H]1Cc2c(O)cc(O)cc2O[C@H]1c1ccccc1)c1cc(O)c(O)c(O)c1 [Compound 15, (+)-(2S,3S)-5,7-dihydroxy-2-phenylchroman-3-yl 3,4,5-trihydroxybenzoate]
- IC50 [4]: 4.56 µM
- proteasome inhibition in intact Jurkat T cells [3]: moderate potency

- IC50 [2, 6]: 7.7 µM
SMILES: O=C(O[C@H]1Cc2c(O)cc(O)cc2O[C@@H]1c1ccc(O)c(O)c1)c1ccc(O)cc1 [Compound 11, (+)-(2R,3S)-5,7-dihydroxy-2-(3,4-dihydroxyphenyl)chroman-3-yl 4-hydroxybenzoate]

SMILES: O=C(O[C@@H]1Cc2c(O)cc(O)cc2O[C@@H]1c1ccc(O)c(O)c1)c1cc(O)c(O)c(O)c1 [(−)-ECG, (−)-epicatechin-3-gallate]
- IC50 [1]: 0.58 µM

SMILES: O=C(OC1Cc2c(O)cc(O)cc2OC1c1ccc(O)c(O)c1)c1cc(O)c(O)c(O)c1 (single isomer, unassigned; (+)) [(+)-ECG]
- IC50 ([1]; read-out: IC50): 0.73 µM

SMILES: O=C(O[C@H]1Cc2c(O)cc(O)c(Cc3ccccc3)c2O[C@H]1c1ccc(O)c(O)c1)c1cc(O)c(O)c(O)c1 [#1, (+)-(2S,3S)-5,7-dihydroxy-8-benzyl-2-[3,4-dihydroxy-phenyl]chroman-3-yl 3,4,5-trihydroxybenzoate]
- IC50 [4]: 0.39 µM

- IC50 [2, 7]: 14 to 15 µM
SMILES: O=C(O[C@@H]1Cc2c(O)cc(O)cc2O[C@H]1c1cc(O)c(O)c(O)c1)c1ccc(O)cc1 (relative stereo) [Compound 3, (2S*,3R*)-trans-5,7-Bis(hydroxy)-2-[3,4,5-tris(hydroxy)phenyl]chroman-3-yl 4-(hydroxy)benzoate]
